Data on one compound can be found in ChEMBL document CHEMBL1156367, “Makaluvamine P, a new cytotoxic pyrroloiminoquinone from Zyzzya cf. fuliginosa” (J Nat Prod, 2001).

Series [1] in a line: ABTS radical scavenging activity assessed as trolox equivalents by TEAC assay. It is filed as physicochemical.
The next series relates to KB. The series can be described thus: Cytotoxicity against human KB cells at 3.2 ug/mL after 48 hrs by XTT assay. The format is functional. For orientation: Tetrazolium assays rely on reduction of a dye to a coloured formazan, in cell work by metabolically active cells.
The target in series [2] is Xanthine dehydrogenase/oxidase (Homo sapiens, UniProt P47989). The series can be described thus: Inhibition of xanthine oxidase by spectrophotometry.
Sequence of Xanthine dehydrogenase/oxidase (P47989 whole entry): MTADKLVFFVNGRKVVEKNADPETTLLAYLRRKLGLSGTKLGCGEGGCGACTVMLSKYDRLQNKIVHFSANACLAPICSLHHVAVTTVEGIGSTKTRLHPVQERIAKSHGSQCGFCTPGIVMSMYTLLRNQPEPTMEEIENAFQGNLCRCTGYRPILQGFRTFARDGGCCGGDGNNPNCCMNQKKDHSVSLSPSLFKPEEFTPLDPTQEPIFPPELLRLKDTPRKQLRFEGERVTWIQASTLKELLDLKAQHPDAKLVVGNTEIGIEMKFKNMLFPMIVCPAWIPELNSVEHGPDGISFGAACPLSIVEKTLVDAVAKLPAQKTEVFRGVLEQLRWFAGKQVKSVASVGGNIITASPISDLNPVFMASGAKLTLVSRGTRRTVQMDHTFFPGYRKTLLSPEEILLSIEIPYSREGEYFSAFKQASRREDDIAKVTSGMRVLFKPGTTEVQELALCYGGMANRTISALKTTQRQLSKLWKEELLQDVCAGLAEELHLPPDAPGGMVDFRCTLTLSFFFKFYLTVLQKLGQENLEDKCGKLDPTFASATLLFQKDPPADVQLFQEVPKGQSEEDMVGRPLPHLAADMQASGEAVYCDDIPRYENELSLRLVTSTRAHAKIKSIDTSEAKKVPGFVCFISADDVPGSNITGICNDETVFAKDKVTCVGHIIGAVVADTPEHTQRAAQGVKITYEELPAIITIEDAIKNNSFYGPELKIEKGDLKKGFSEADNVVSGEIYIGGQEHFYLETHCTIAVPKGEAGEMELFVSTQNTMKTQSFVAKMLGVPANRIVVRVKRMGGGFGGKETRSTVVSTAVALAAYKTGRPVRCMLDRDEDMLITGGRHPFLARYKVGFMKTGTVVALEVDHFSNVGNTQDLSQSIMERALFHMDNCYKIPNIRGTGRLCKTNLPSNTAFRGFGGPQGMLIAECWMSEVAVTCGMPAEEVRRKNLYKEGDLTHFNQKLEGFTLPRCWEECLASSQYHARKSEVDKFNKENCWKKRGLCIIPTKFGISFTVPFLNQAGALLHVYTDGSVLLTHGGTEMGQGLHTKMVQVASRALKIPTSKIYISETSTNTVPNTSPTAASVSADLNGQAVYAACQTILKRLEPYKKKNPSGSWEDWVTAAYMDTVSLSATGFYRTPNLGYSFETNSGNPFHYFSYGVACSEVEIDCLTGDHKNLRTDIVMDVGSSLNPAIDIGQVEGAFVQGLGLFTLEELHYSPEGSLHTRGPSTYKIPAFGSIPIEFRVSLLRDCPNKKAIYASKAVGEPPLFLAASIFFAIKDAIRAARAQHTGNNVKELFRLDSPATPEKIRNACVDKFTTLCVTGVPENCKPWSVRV

As for `Cn1cc2c3c1C(=O)C(NCCc1ccc(O)cc1)=CC3=[N+](C)CC2.[Cl-]` [MAKALUVAMINE P], the Activity in series [1] is on record as 0.341. In the series on KB, testing at 3.2 µg/mL gave an inhibition of 64%. For the same compound, it took 16.5 µM to reach half-maximal inhibition in series [2] (IC50).
